Data set [1] has as its system Mycobacterium tuberculosis. Description: Antimycobacterial activity against clinical isolate drug susceptible Mycobacterium tuberculosis H37Rv assessed as bacterial growth inhibition. The class given is functional.
Data set [2] is described as follows: Metabolic stability in mouse liver microsomes assessed as half life. The class given is ADME, Microsome.
The nature of data set [3]: Metabolic stability in rat liver microsomes assessed as half life. Type of data set: ADME, Microsome.
Data set [4] deals with Mycobacterium tuberculosis. Description: Antimycobacterial activity against Mycobacterium tuberculosis H37Rv assessed as bacterial growth inhibition incubated for 7 days by MABA assay. Type of data set: functional. To be noted: 168 h, time 7 day. (In general: The colour change of resazurin is a common sign of viable cells or microbes.)
Data set [5] in a line: Cytotoxicity against African green monkey vero cells assessed as reduction in cell viability. Type of data set: toxicity, cell-based. Particulars: chlorocebus sabaeus.
Data set [6] is described as follows: Metabolic stability in human liver microsomes assessed as half life. Type of data set: ADME, Microsome. In general terms: Microsomes from liver hold many membrane-bound enzymes, among them those of drug oxidation.
The nature of data set [7]: Clearance in CD-1 mouse at 0.6 mg/kg, iv. The class given is ADME, organism-based. Particulars: in vivo.
The nature of data set [8]: Cmax in CD-1 mouse at 5 mg/kg, po. The class given is ADME, organism-based. Also noted: dose 5 mg/kg, route po. Particulars: in vivo.
Data set [9] in a line: AUC (0-last) in CD-1 mouse at 5 mg/kg, po. Type of data set: ADME, organism-based. Also noted: dose 5 mg/kg, route po. To be noted: in vivo.
Data set [10] is described as follows: Half life in CD-1 mouse at 0.6 mg/kg, iv. The class given is ADME, organism-based. Particulars: in vivo.
Data set [11] in a line: Volume of distribution in CD-1 mouse at 0.6 mg/kg, iv. Type of data set: ADME, organism-based. Particulars: in vivo.
A short description of data set [12]: Oral bioavailability in CD-1 mouse at 5 mg/kg. Type of data set: ADME, organism-based. Particulars: in vivo.
Data set [13] in a line: Cmax in Beagle dog at 2 mg/kg, po. Type of data set: ADME, organism-based, Canis lupus familiaris. Also noted: dose 2 mg/kg, route po. Particulars: in vivo.
Data set [14] concerns the target Sodium channel protein type 5 subunit alpha (Homo sapiens, UniProt Q14524). Description: Inhibition of NaV 1.5 (unknown origin).
Data set [15] is described as follows: AUC (0-last) in Beagle dog at 2 mg/kg, po. Type of data set: ADME, organism-based, Canis lupus familiaris. Particulars: in vivo.
Data set [16] in a line: Half life in Beagle dog at 0.5 mg/kg, iv. To be noted: in vivo. Type of data set: ADME, organism-based, Canis lupus familiaris.
For data set [17], the target named is Voltage-dependent L-type calcium channel subunit alpha-1C (Homo sapiens, UniProt Q13936). Kind of data set: Inhibition of human Cav1.2.
Voltage-dependent L-type calcium channel subunit alpha-1C, sequence (Q13936 whole entry): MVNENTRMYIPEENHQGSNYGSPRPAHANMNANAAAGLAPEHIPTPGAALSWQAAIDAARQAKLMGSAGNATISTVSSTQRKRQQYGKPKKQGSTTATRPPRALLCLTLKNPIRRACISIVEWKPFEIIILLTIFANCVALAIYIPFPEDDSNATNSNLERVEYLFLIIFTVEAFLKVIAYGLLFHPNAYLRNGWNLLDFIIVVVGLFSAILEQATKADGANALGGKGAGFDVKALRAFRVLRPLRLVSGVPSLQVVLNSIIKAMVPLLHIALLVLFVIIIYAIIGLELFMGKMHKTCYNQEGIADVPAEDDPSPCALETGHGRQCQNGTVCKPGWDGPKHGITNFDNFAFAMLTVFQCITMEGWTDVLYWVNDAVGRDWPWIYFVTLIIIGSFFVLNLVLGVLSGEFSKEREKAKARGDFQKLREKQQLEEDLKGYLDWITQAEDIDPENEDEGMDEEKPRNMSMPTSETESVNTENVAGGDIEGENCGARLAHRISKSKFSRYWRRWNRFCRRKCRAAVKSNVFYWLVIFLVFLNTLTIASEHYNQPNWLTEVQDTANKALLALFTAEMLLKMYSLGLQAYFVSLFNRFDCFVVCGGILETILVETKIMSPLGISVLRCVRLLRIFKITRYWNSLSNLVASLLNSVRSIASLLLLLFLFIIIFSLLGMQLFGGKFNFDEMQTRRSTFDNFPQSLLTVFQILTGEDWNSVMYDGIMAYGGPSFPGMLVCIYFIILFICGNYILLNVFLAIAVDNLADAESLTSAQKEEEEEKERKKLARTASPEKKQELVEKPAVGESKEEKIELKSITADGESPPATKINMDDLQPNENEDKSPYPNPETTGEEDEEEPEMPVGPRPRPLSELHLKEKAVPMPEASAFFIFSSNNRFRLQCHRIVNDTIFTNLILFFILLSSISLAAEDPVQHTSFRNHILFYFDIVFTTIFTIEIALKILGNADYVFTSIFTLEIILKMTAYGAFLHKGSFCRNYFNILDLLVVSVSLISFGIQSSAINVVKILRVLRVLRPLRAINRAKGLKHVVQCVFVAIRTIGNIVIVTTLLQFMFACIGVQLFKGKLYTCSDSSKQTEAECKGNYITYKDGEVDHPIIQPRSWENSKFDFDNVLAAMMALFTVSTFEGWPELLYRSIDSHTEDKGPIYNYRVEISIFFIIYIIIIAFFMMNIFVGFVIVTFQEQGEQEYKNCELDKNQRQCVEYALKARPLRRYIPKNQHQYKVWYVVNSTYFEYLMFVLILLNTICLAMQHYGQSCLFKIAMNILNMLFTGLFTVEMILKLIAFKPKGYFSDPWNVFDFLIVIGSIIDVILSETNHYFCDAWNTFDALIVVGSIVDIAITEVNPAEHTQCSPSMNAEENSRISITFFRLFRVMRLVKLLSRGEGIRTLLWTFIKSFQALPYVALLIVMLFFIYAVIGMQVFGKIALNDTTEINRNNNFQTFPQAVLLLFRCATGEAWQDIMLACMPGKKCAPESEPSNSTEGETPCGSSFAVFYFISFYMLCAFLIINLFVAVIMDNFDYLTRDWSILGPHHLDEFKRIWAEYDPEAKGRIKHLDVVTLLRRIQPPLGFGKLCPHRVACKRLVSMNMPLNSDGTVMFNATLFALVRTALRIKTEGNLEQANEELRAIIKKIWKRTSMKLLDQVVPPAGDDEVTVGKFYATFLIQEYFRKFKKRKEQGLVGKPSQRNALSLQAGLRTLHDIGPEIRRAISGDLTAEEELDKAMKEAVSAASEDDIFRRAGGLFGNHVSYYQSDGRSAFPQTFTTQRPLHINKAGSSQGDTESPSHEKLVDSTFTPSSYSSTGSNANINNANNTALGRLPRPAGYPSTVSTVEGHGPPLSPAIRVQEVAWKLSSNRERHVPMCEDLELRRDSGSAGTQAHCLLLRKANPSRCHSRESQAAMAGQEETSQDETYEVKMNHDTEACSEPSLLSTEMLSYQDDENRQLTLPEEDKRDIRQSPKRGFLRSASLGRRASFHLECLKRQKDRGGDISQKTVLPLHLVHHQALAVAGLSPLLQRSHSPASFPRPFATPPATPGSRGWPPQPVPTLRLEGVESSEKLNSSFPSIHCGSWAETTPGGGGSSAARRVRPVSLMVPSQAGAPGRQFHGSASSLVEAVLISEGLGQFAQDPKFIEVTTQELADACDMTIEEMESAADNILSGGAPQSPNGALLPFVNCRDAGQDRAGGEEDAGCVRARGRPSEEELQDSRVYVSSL
Data set [18] concerns the target T1, A-type voltage-gated potassium channel KCND3 (Homo sapiens, UniProt Q9UK17).
T1 sequence (Q9UK17 whole entry): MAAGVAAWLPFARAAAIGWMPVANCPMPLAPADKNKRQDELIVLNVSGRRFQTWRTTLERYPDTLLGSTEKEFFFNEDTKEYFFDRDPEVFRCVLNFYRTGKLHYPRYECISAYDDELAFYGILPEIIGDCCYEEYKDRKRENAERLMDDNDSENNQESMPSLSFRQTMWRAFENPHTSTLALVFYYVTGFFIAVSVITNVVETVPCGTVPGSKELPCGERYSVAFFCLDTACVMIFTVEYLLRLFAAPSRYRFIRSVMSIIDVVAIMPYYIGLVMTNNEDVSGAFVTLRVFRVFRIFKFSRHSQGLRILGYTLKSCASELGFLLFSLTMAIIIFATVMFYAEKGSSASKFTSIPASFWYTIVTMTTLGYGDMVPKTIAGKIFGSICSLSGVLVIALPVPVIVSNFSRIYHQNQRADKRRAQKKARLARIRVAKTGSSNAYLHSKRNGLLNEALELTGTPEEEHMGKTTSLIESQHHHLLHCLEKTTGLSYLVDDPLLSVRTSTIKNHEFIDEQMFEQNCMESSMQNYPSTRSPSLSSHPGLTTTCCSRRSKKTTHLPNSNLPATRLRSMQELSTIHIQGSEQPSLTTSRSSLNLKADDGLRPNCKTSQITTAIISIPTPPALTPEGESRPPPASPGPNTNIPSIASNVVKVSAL
Kind of data set: Inhibition of Kv4.3 (unknown origin).

Data set [19] is described as follows: AUC (0-last) in Sprague-Dawley rat at 4 mg/kg, po. Particulars: in vivo. Type of data set: ADME, organism-based.
Data set [20] has as its target Voltage-gated inwardly rectifying potassium channel KCNH2 (Homo sapiens, UniProt Q12809). Description: Inhibition of human ERG. The class given is toxicity.
Data set [21] in a line: Half life in Sprague-Dawley rat at 1 mg/kg, iv. Type of data set: ADME, organism-based. To be noted: in vivo.
Data set [22] is described as follows: Cmax in Sprague-Dawley rat at 4 mg/kg, po. Also noted: dose 4 mg/kg, route po. The class given is ADME, organism-based. Particulars: in vivo.

Structures are written as SMILES. Values after ≈ are worked out from the molar mass of the structure shown.

The source of these data is ChEMBL document CHEMBL5113463, “Discovery and preclinical evaluations of JBD0131, a novel nitrodihydro-imidazooxazole anti-tuberculosis agent” (Bioorg Med Chem Lett, 2022).

Voltage-gated inwardly rectifying potassium channel KCNH2, sequence (Q12809 whole entry): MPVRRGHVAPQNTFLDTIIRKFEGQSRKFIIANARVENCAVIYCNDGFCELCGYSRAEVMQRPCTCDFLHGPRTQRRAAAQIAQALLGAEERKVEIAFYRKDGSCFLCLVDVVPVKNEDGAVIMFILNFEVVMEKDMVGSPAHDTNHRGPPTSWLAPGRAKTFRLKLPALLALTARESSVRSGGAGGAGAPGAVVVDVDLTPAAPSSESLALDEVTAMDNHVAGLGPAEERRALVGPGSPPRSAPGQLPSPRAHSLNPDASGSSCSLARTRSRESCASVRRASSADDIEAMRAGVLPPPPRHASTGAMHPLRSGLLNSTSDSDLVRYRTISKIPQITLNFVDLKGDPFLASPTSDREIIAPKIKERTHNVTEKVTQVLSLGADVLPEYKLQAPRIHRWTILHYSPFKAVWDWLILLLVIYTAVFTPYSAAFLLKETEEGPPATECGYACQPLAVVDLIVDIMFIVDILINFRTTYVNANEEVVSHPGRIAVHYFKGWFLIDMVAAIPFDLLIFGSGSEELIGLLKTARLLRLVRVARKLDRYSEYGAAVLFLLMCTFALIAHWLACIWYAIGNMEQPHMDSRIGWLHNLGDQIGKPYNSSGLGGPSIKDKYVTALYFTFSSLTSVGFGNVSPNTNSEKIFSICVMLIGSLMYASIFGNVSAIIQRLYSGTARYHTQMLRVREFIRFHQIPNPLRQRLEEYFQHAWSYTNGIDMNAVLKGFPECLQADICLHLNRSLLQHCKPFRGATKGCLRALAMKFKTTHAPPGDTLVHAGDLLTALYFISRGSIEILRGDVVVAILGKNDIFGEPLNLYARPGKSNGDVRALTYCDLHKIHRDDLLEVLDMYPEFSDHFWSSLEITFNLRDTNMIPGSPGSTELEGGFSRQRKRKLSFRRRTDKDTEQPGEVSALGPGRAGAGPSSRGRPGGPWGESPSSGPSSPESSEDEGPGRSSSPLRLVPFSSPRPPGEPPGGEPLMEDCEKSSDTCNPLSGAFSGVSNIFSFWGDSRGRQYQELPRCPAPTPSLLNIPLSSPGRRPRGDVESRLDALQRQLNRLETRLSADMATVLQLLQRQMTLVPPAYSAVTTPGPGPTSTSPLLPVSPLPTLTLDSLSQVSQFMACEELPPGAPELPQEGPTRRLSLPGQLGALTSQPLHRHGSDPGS

In the case of `NNC(=O)c1ccncc1` [ISONIAZID], in data set [1], the MIC50 worked out at 0.024 µg/mL (≈ 0.175 µM) and the MIC90 is 0.034 µg/mL (≈ 0.248 µM).
In the case of `C[C@]1(CN2Cc3nc(-c4ccc(F)cc4)oc3C2)Cn2cc([N+](=O)[O-])nc2O1`, the half-life in data set [2] is 0.717 h; in data set [3], 0.65 h; in data set [6] it was 0.983 h. The MIC in data set [4] turned out to be 0.021 µg/mL (≈ 0.0545 µM). For the same compound, the cytotoxic concentration (CC50) in [5] is above 32 µg/mL.
In the case of `C[C@]1(CN2Cc3nc(-c4ccc(F)cn4)sc3C2)Cn2cc([N+](=O)[O-])nc2O1`, the clearance in data set [7] is 12.7 mL/min/kg. In data set [8], the concentration peaked (Cmax) at 385 ng/mL. Further, the exposure AUC(0-t) in data set [9] (CD-1, mouse) was determined as 2920 ng·h/mL. Further, the half-life in data set [10] is 1.71 h. Besides, in data set [11], the Vd came out at 2.02 L/kg. Besides, the MIC in data set [4] was 0.03 µg/mL (≈ 0.0746 µM). The compound further yielded a bioavailability in [12] (CD-1, mouse) of 24.5%. In data set [5], the CC50 was above 32 µg/mL.
As to `C[C@]1(CN2Cc3nc(-c4ccc(F)cc4F)sc3C2)Cn2cc([N+](=O)[O-])nc2O1`, the concentration in [8] peaked (Cmax) at 182 ng/mL. In [9] (mouse), this compound showed an AUClast of 1789 ng·h/mL. This compound gave a half-life in [10] of 3.08 h. In [11], this compound registered a Vd of 2.66 L/kg. Further, the MIC in [4] was below 0.013 µg/mL. The compound also showed a F in data set [12] (mouse, po, 5 mg/kg) of 9.6%. The CC50 in data set [5] is above 32 µg/mL.
In the case of `C[C@]1(CN2Cc3nc(-c4ccc(F)cc4)sc3C2)Cn2cc([N+](=O)[O-])nc2O1`, the Cmax in [13] was found to be 5.82 nM; in [22], 57.9 nM. Moreover, the concentration for half-maximal inhibition (IC50) in data set [14] was 12.9 µM; in data set [17], 13.3 µM; in data set [18], above 40 µM; in [20] it was 1.69 µM. Moreover, the results for the AUClast in data set [15] and in data set [19] were 166 ng·h and 574 ng·h, respectively. In addition, the half-life in data set [16] was 15.3 h; in data set [21], 4.65 h.
As to `NC[C@H]1O[C@H](O[C@H]2[C@H](O)[C@@H](O[C@H]3O[C@H](CO)[C@@H](O)[C@H](N)[C@H]3O)[C@H](N)C[C@@H]2N)[C@H](O)[C@@H](O)[C@@H]1O` [KANAMYCIN], in data set [1], the MIC50 amounted to 1.22 µg/mL (≈ 2.52 µM) and the MIC90 stood at 1.91 µg/mL (≈ 3.94 µM).

The MIC50 is the lowest concentration that inhibits either 50% of growth or 50% of the strains tested, depending on the study. What is called MIC90 is the lowest concentration that inhibits either 90% of growth or 90% of the strains tested, depending on the study. The term half-life denotes how long it takes for the measured level to halve. As usually defined, the MIC is the lowest concentration that inhibits growth of the organism. What is called CC50 is the concentration that lowers cell viability or growth by half. By clearance is commonly meant a measure of how efficiently the substance is removed, as volume per time. In general, Cmax refers to the peak of the concentration-time curve. As usually defined, the AUC(0-t) is the area under the concentration-time curve up to a stated or last time point. What is called Vd is a proportionality between amount in the body and measured concentration, not a real space. Broadly, the bioavailability is dose-corrected exposure relative to a reference, in per cent. Usually IC50 stands for the midpoint of a concentration-inhibition curve.
